# Laboratory results taken from US8273771B2, “Ischemic disorder or disease inhibitors” (Pronas Pharma AB, priority 2007, dated 2012).
# Columns and labels:
# Assay type in all cases: in vivo, rat
# [1] = test system: MCA from rats with induced SAH; test: Myograph contractile response to Ang II (via AT1) in cerebral arteries of treated SAH rats; conditions: in presence of PD123319, compared to SAH rats, no significant difference to sham
# Method: The brains were quickly removed and chilled in ice-cold bicarbonate buffer solution (see composition below). Under a dissection microscope, the middle cerebral artery (MCA), the basilar artery (BA) and circle of Willis were carefully dissected free from the brain and cleared of connective tissue. The MCA and BA were immediately mounted in myographs for in vitro pharmacology or snap frozen at -80° C. and examined by real-time PCR. […] Measurements were recorded on a computer by use of a PowerLab unit (ADInstruments). […] The contractile capacity was determined by exposing the vessels to an isotonic solution containing 63.5 mM of K+, obtained by partial change of NaCl for KCl in the above buffer. […] Data are expressed as mean±standard error of the mean (s.e.m.), and n refers to the number of rats. […] In vitro Pharmacology Contractile responses in each segment are expressed as percentage of the 63.5 mM K+ induced contraction. […]
# [2] = test system: ETA receptor mRNA; test: Real-time PCR of receptor mRNA in cerebral arteries after SAH; conditions: MCA, BA and circle of Willis grouped
# Method: (§1) To quantify mRNA for the ETA, ETB and 5-HT1B receptors, RT-PCR and real-time detection monitoring the PCR products was employed. Total cellular RNA was extracted from BA, MCA and circle of Willis using the Trizol RNA isolation kit (Invitrogen, USA) following the suppliers instructions. Briefly, the arteries were homogenized in 1 ml of Trizol (Invitrogen, Sweden) by using a TissueLyser (VWR, Sweden). Subsequently 200 μl of chloroform was added and the samples were incubated in room temperature for 3 min, followed by centrifugation at 15000 g for 15 min at 4° C. The supernatant was collected and the organic phase discarded. 200 μl of chloroform was again added to remove all traces of phenol and the samples were centrifuged at 15000 g for 15 at 4° C. The aqueous supernatant was again collected and to precipitate the RNA equal amount of isopropanol was added and the samples incubated overnight at −20° C.
# (§2) Subsequently, the RNA was centrifuged at 15000 g for 20 min at 4° C. […] Total RNA was determined using a GeneQuant Pro spectrophotometer measuring absorbance at 260/280 (Amersham Pharmacia Biotech, Uppsala, Sweden).
# (§3) Reverse transcription of total RNA to cDNA was carried out using the Gene Amp RNA kit (Perkin-Elmer Applied Biosystems, USA) in a Perkin-Elmer 2400 PCR machine at 42° C. for 90 min and then 72° C. for 10 min. The real-time quantitative PCR was performed with the GeneAmp SYBR Green PCR kit (PE Applied Biosystems) in a Perkin-Elmer real-time PCR machine (GeneAmp 5700 sequence detection system). […] The system automatically monitors the binding of a fluorescent dye to double-strand DNA by real-time detection of the fluorescence during each cycle of PCR amplification. […]
# (§4) PCR experiments were performed on BA, MCA and circle of Willis from SAH, SAH treated with raf inhibitor or PKC inhibitor and sham operated rats. Data were analysed with the comparative cycle threshold (CT) method (28). The CT values of EF-1 mRNA were used as a reference to quantify the relative amount of ETA, ETB and 5-HT1B mRNA. […]
# [3] = test system: 5-HT1B receptor mRNA; test: as above; conditions: MCA, BA and circle of Willis grouped; SAH rats
# Method: as §1, §2, §3, §4
# [4] = test system: ETB receptor mRNA; test: as above; conditions: MCA, BA and circle of Willis grouped; SAH rats
# Method: as §1, §2, §3, §4
structure (smiles),measurement,setting,value
Oc1cc(-c2nc(-c3ccccc3)[nH]c2-c2ccncc2)ccc1Cl [SB386023-b],Ang II induced contractile response,[1],significantly attenuated
same,"expression of ETA receptor mRNA, difference between sham, SAH and treated SAH",[2],no difference
same,enhanced expression of 5-HT1B receptor mRNA,[3],inhibited
same,enhanced expression of ETB receptor mRNA,[4],inhibited
